Assay results from ChEMBL document CHEMBL1208728, “Design, synthesis, and structure-activity relationships of pyrazole derivatives as potential FabH inhibitors” (Bioorg Med Chem Lett, 2010).
Values after ≈ are worked out from the molar mass of the structure shown.

Experiments:
[1] = system: Bacillus subtilis; experiment: Antimicrobial activity against Bacillus subtilis ATCC 6633 by MTT assay; format: functional
[2] = system: Staphylococcus aureus; experiment: Antimicrobial activity against Staphylococcus aureus ATCC 6538 by MTT assay; format: functional
[3] = system: Escherichia coli; experiment: Antimicrobial activity against Escherichia coli ATCC 35218 by MTT assay; format: functional
[4] = system: Pseudomonas aeruginosa; experiment: Antimicrobial activity against Pseudomonas aeruginosa ATCC 13525 by MTT assay; format: functional
[5] = system: Enterococcus faecalis; experiment: Antimicrobial activity against Streptococcus faecalis ATCC 9790 by MTT assay; format: functional
[6] = system: Enterobacter cloacae; experiment: Antimicrobial activity against Enterobacter cloacae ATCC 13047 by MTT assay; format: functional
[7] = biological target: T1, 3-oxoacyl-[acyl-carrier-protein] synthase 3 (Escherichia coli, UniProt C3TDZ2); experiment: Inhibition of Escherichia coli FabH
T1 sequence (C3TDZ2 whole entry): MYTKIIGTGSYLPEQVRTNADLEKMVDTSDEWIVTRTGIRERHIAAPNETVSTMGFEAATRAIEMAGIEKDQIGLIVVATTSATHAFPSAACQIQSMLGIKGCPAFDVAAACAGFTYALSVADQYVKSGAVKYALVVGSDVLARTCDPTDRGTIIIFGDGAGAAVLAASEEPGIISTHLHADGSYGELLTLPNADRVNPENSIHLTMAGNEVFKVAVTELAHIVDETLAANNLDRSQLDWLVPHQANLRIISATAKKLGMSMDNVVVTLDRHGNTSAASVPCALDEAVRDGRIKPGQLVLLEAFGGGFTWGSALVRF

[8] = Toxicity against RBC assessed as hemolysis; format: cell-based; settings: erythrocyte

SMILES | MIC [1] [µg/mL] | MIC [2] [µg/mL] | MIC [3] [µg/mL] | MIC [4] [µg/mL] | MIC [5] [µg/mL] | MIC [6] [µg/mL] | IC50 [7] [µM] | LC30 [8] [mg/mL]
CC(=O)N1N=C(c2ccc(C)c(C)c2)CC1c1ccccc1Cl (stereo unspecified) | > 50 | 25 (≈ 76.5 µM) | 25 (≈ 76.5 µM) | 6.25 (≈ 19.1 µM) | 50 (≈ 153 µM) | > 50 | – | –
COc1cc(OC)cc(C2CC(c3ccc(C)c(C)c3)=NN2C(C)=O)c1 (stereo unspecified) | 12.5 (≈ 35.5 µM) | > 50 | > 50 | 3.12 (≈ 8.87 µM) | 12.5 (≈ 35.5 µM) | 25 (≈ 70.9 µM) | – | –
CC(=O)N1N=C(c2ccc(C)c(C)c2)CC1c1ccc(C)cc1 (stereo unspecified) | 12.5 (≈ 40.8 µM) | 3.12 (≈ 10.2 µM) | > 50 | 3.12 (≈ 10.2 µM) | 12.5 (≈ 40.8 µM) | > 50 | – | –
COc1ccc(C2CC(c3ccc(C)c(C)c3)=NN2C(C)=O)cc1 (stereo unspecified) | 12.5 (≈ 38.8 µM) | 3.12 (≈ 9.69 µM) | 25 (≈ 77.5 µM) | 3.12 (≈ 9.69 µM) | 12.5 (≈ 38.8 µM) | 12.5 (≈ 38.8 µM) | – | –
CC(=O)N1N=C(c2ccc(C)c(C)c2)CC1c1ccccc1 (stereo unspecified) | > 50 | 25 (≈ 85.5 µM) | > 50 | 12.5 (≈ 42.8 µM) | 25 (≈ 85.5 µM) | > 50 | – | –
CC(=O)N1N=C(c2ccccc2)CC1c1ccc(F)cc1 (stereo unspecified) | 25 (≈ 88.6 µM) | 25 (≈ 88.6 µM) | 25 (≈ 88.6 µM) | 12.5 (≈ 44.3 µM) | 50 (≈ 177 µM) | 12.5 (≈ 44.3 µM) | – | –
CC(=O)N1N=C(c2ccccc2)CC1c1ccc(Br)cc1 (stereo unspecified) | 25 (≈ 72.8 µM) | > 50 | 12.5 (≈ 36.4 µM) | 25 (≈ 72.8 µM) | 12.5 (≈ 36.4 µM) | 12.5 (≈ 36.4 µM) | – | –
CC(=O)N1N=C(c2ccccc2)CC1c1ccc(C)cc1 (stereo unspecified) | > 50 | > 50 | 25 (≈ 89.8 µM) | 12.5 (≈ 44.9 µM) | 6.25 (≈ 22.5 µM) | 25 (≈ 89.8 µM) | – | –
COc1ccc(C2CC(c3ccccc3)=NN2C(C)=O)cc1 (stereo unspecified) | > 50 | 12.5 (≈ 42.5 µM) | > 50 | 12.5 (≈ 42.5 µM) | 50 (≈ 170 µM) | > 50 | – | –
CC(=O)N1N=C(c2ccccc2)CC1c1ccccc1Cl (stereo unspecified) | 25 (≈ 83.7 µM) | > 50 | > 50 | 25 (≈ 83.7 µM) | 25 (≈ 83.7 µM) | 25 (≈ 83.7 µM) | – | –
COc1cc(OC)cc(C2CC(c3ccccc3)=NN2C(C)=O)c1 (stereo unspecified) | 12.5 (≈ 38.5 µM) | 25 (≈ 77.1 µM) | 25 (≈ 77.1 µM) | 25 (≈ 77.1 µM) | 25 (≈ 77.1 µM) | > 50 | – | –
COc1ccc(C2=NN(C(C)=O)C(c3ccc(F)cc3)C2)cc1 (stereo unspecified) | 6.25 (≈ 20 µM) | 6.25 (≈ 20 µM) | 0.39 (≈ 1.25 µM) | 12.5 (≈ 40 µM) | 1.56 (≈ 5 µM) | 12.5 (≈ 40 µM) | 4.2 | > 10
COc1ccc(C2=NN(C(C)=O)C(c3ccc(Cl)cc3)C2)cc1 (stereo unspecified) | 6.25 (≈ 19 µM) | 25 (≈ 76 µM) | 0.78 (≈ 2.37 µM) | 25 (≈ 76 µM) | 6.25 (≈ 19 µM) | 25 (≈ 76 µM) | 7.6 | > 10
COc1ccc(C2=NN(C(C)=O)C(c3ccc(Br)cc3)C2)cc1 (stereo unspecified) | 12.5 (≈ 33.5 µM) | 12.5 (≈ 33.5 µM) | 1.56 (≈ 4.18 µM) | 12.5 (≈ 33.5 µM) | 3.12 (≈ 8.37 µM) | > 50 | 10.4 | > 10
COc1ccc(C2=NN(C(C)=O)C(c3ccc(C)cc3)C2)cc1 (stereo unspecified) | 25 (≈ 81.1 µM) | 6.25 (≈ 20.3 µM) | 6.25 (≈ 20.3 µM) | 12.5 (≈ 40.5 µM) | 25 (≈ 81.1 µM) | 3.12 (≈ 10.1 µM) | 17.3 | > 10
COc1ccc(C2=NN(C(C)=O)C(c3ccc(OC)cc3)C2)cc1 (stereo unspecified) | 6.25 (≈ 19.3 µM) | 6.25 (≈ 19.3 µM) | 3.12 (≈ 9.63 µM) | > 50 | 12.5 (≈ 38.5 µM) | 12.5 (≈ 38.5 µM) | 19.6 | > 10
COc1ccc(C2=NN(C(C)=O)C(c3ccccc3Cl)C2)cc1 (stereo unspecified) | 25 (≈ 76 µM) | > 50 | 6.25 (≈ 19 µM) | > 50 | 12.5 (≈ 38 µM) | 6.25 (≈ 19 µM) | 31.4 | > 10
COc1ccc(C2=NN(C(C)=O)C(c3ccccc3)C2)cc1 (stereo unspecified) | 6.25 (≈ 21.2 µM) | > 50 | 25 (≈ 84.9 µM) | 12.5 (≈ 42.5 µM) | 50 (≈ 170 µM) | > 50 | 46.7 | > 10
CC(=O)N1N=C(c2ccccc2)CC1c1ccccc1 (stereo unspecified) | 25 (≈ 94.6 µM) | 25 (≈ 94.6 µM) | 25 (≈ 94.6 µM) | 12.5 (≈ 47.3 µM) | 12.5 (≈ 47.3 µM) | 12.5 (≈ 47.3 µM) | – | –
CC(=O)N1N=C(c2ccccc2)CC1c1ccc(Cl)cc1 (stereo unspecified) | > 50 | 12.5 (≈ 41.8 µM) | 25 (≈ 83.7 µM) | 12.5 (≈ 41.8 µM) | 12.5 (≈ 41.8 µM) | 25 (≈ 83.7 µM) | – | –
NC[C@H]1O[C@H](O[C@H]2[C@H](O)[C@@H](O[C@H]3O[C@H](CO)[C@@H](O)[C@H](N)[C@H]3O)[C@H](N)C[C@@H]2N)[C@H](N)[C@@H](O)[C@@H]1O [BEKANAMYCIN] | 0.39 (≈ 0.807 µM) | 3.12 (≈ 6.46 µM) | 1.56 (≈ 3.23 µM) | 3.12 (≈ 6.46 µM) | 3.12 (≈ 6.46 µM) | 1.56 (≈ 3.23 µM) | – | –
CC1(C)S[C@@H]2[C@H](NC(=O)Cc3ccccc3)C(=O)N2[C@H]1C(=O)O [PENICILLIN G] | 1.56 (≈ 4.67 µM) | 6.25 (≈ 18.7 µM) | 3.12 (≈ 9.35 µM) | 6.25 (≈ 18.7 µM) | 1.56 (≈ 4.67 µM) | 3.12 (≈ 9.35 µM) | – | –
